Series [1] can be described thus: Three time point assay for plasma, brain and testes distribution after oral dosing. Type of series: in vivo, rat. Conditions: for Brain concentration / Kp brain/plasma / Kp testes/plasma / Plasma concentration / Testes concentration: rat, oral dosing. In short, it runs like this: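 Male SD rats received 10 mg/kg by oral gavage; plasma was sampled at one or more of 0.5, 2, 3, 5.3 and 7 h. PBS-perfused brain and testis were homogenized 1:9 in PBS (pH 7.4):MeOH 2:1, and compound levels were quantified by LC-MS/MS against calibration standards.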

The next series relates to Caco-2 cells. The series is described as follows: Caco-2 permeability assay. The following applies: for Caco-2: Papp A-B: Caco-2, apical to basolateral. Type of series: in vitro ADME. As to the method:
Exemplary compounds were tested for cell permeability in Caco-2, MDCKII-MDR1 and MDCKII-BCRP cell lines with efflux transporter engagement inferred from the efflux ratios determined. Procedures and results are described below. […] This feature of certain compounds is in part due to efflux transporter engagement. See, for instance, exemplary such compounds included in data tables below.
The transport buffer in the study was HBSS with 10.0 mM HEPES at pH 7.40±0.05. Test compound was tested at 2.00 μM bi-directionally in duplicate. Digoxin was tested at 10.0 μM bi-directionally in duplicate, while nadolol and metoprolol were tested at 2.00 μM in A to B direction in duplicate. Final DMSO concentration was adjusted to less than 1%. The plate was incubated for 2 hours in CO2 incubator at 37±1° C., with 5% CO2 at saturated humidity without shaking. And all samples after mixed with acetonitrile containing internal standard were centrifuged at 3200×g for 10 min. For nadolol and metoprolol, 200 μL supernatant solution was diluted with 600 μL ultra-pure water for LC-MS/MS analysis. For digoxin and test compounds, 200 μL supernatant solution was diluted with 200 μL ultra-pure water for LC-MS/MS analysis. Concentrations of test and control compounds in starting solution, donor solution, and receiver solution were quantified by LC-MS/MS methodologies, using peak area ratio of analyte/internal standard.
After transport assay, lucifer yellow rejection assay was applied to determine the Caco-2 cell monolayer integrity.
[…] And permeation of lucifer yellow through the monolayer was measured to evaluate the cellular integrity.
The apparent permeability coefficient Papp (cm/s) was calculated using the equation: Papp=(dCr/dt)×Vr/(A×C0), where dCr/dt is the cumulative concentration of compound in the receiver chamber as a function of time (μM/s); Vr is the solution volume in the receiver chamber (0.075 mL on the apical side, 0.25 mL on the basolateral side); A is the surface area for the transport, i.e. 0.0804 cm^2 for the area of the monolayer; C0 is the initial concentration in the donor chamber (μM).
The efflux ratio was calculated using the equation: Efflux Ratio=Papp (BA)/Papp(AB).
Percent recovery was calculated using the equation: % Solution Recovery=100×[(Vr×Cr)+(Vd×Cd)]/(Vd×C0), where Vd is the volume in the donor chambers (0.075 mL on the apical side, 0.25 mL on the basolateral side); Cd and Cr are the final concentrations of transport compound in donor and receiver chambers, respectively.
On the technique in general: Caco-2 monolayers are a common model of the intestinal barrier.

Molecules are shown by their SMILES.

Take `Cc1ccc(-c2noc([C@H]3C[C@@H]3F)n2)cc1NC(=O)c1cnc2cc(OC(F)(F)F)ccn12` [Compound I-87]: in series [1] (time point 0.5 h), the Brain concentration is 248 ng/g, the Kp brain/plasma is listed as 0.60, the Kp testes/plasma came out at 0.38 and the Plasma concentration was determined as 454 ng/mL. The molecule further displayed a Testes concentration in series [1] (time point 0.5 h) of 159 ng/g. Besides, in series [1] (time point 2 h), the Brain concentration is 954 ng/g, the Kp brain/plasma amounted to 0.68, the Kp testes/plasma is reported as 0.71 and the Plasma concentration worked out at 1480 ng/mL. Besides, in series [1] (time point 2 h), the Testes concentration came to 989 ng/g. Further, in series [1] (time point 7 h), the Brain concentration is 1730 ng/g, the Kp brain/plasma came out at 0.36, the Kp testes/plasma was 0.34 and the Plasma concentration stood at 4970 ng/mL. The molecule further had a Testes concentration in series [1] (time point 7 h) of 1650 ng/g. Further, in the series with Caco-2 cells, the “Caco-2: Efflux Ratio” value came out at 0.66 and the “Caco-2: Papp A-B” value is 7.81 10^−6 cm/s.

In series [1] (time point 2 h), `Cc1ccc(-c2noc([C@H]3C[C@@H]3F)n2)cc1NC(=O)c1cnc2ccc(C#N)cn12` [Compound I-384] gave a Brain concentration of 21.4 ng/g, a Kp brain/plasma of 0.53, a Kp testes/plasma of 1.49 and a Plasma concentration of 40.6 ng/mL. The Testes concentration in series [1] (time point 2 h) worked out at 60.7 ng/g. For the same molecule, in the series on Caco-2 cells, the “Caco-2: Efflux Ratio” value amounted to 0.90 and the “Caco-2: Papp A-B” value is listed as 16.5 10^−6 cm/s.

Consider `COC(=O)N1CC(c2nc(-c3ccc(Cl)c(NC(=O)c4cnc5ccccn45)c3)no2)C1` [Compound I-339], for which, in series [1] (time point 2 h), the Brain concentration is reported as 603 ng/g, the Kp brain/plasma was 0.50, the Kp testes/plasma turned out to be 0.79 and the Plasma concentration is 1200 ng/mL. The molecule further showed a Testes concentration in series [1] (time point 2 h) of 947 ng/g. In addition, in the series with Caco-2 cells, the “Caco-2: Efflux Ratio” value is listed as 0.56 and the “Caco-2: Papp A-B” value is recorded as 22.2 10^−6 cm/s.

As to `Cc1ccc(-c2noc([C@H]3C[C@@H]3F)n2)cc1NC(=O)c1cnc2cc(OC(C)C)ccn12` [Compound I-88], in series [1] (time point 0.5 h), the Brain concentration stood at 722 ng/g, the Kp brain/plasma is on record as 0.27, the Kp testes/plasma is 0.19 and the Plasma concentration was found to be 2640 ng/mL. Further, the Testes concentration in series [1] (time point 0.5 h) was 480 ng/g. Also, in series [1] (time point 2 h), the Brain concentration was 1200 ng/g, the Kp brain/plasma is on record as 0.14, the Kp testes/plasma turned out to be 0.16 and the Plasma concentration stood at 8390 ng/mL. In series [1] (time point 2 h), this molecule displayed a Testes concentration of 1330 ng/g. Also, in series [1] (time point 7 h), the Brain concentration came out at 1250 ng/g, the Kp brain/plasma came out at 0.15, the Kp testes/plasma amounted to 0.21 and the Plasma concentration worked out at 9200 ng/mL. The molecule further yielded a Testes concentration in series [1] (time point 7 h) of 1950 ng/g. Also, in the series with Caco-2 cells, the “Caco-2: Efflux Ratio” value came to 0.79 and the “Caco-2: Papp A-B” value is listed as 6.24 10^−6 cm/s.

In series [1] (time point 2 h), `Cc1nc(-c2ccc(C)c(NC(=O)c3cnc4ccccn34)c2)no1` [Compound I-360] came in with a Brain concentration of 3420 ng/g, a Kp brain/plasma of 0.94, a Kp testes/plasma of 0.81 and a Plasma concentration of 3650 ng/mL. The same molecule displayed a Testes concentration in series [1] (time point 2 h) of 2960 ng/g. Besides, in the series with Caco-2 cells, the “Caco-2: Efflux Ratio” value stood at 0.36 and the “Caco-2: Papp A-B” value is listed as 12.7 10^−6 cm/s.

In series [1] (time point 2 h), `Cc1ccc(-c2noc([C@H]3CC(F)(F)CN3)n2)cc1NC(=O)c1cnc2ccccn12` [Compound I-359] returned a Brain concentration of 52.7 ng/g, a Kp brain/plasma of 0.02, a Kp testes/plasma of 0.12 and a Plasma concentration of 2950 ng/mL. This molecule had a Testes concentration in series [1] (time point 2 h) of 345 ng/g. In addition, in the series with Caco-2 cells, the “Caco-2: Efflux Ratio” value worked out at 1.19 and the “Caco-2: Papp A-B” value is 9.88 10^−6 cm/s.

In series [1] (time point 0.5 h), `Cc1ccc(-c2noc(CC(O)C(F)F)n2)cc1NC(=O)c1cnc2ccccn12` (centres unmarked) [Compound I-114] gave a Brain concentration of 106 ng/g, a Kp brain/plasma of 0.07, a Kp testes/plasma of 0.17 and a Plasma concentration of 1540 ng/mL. In series [1] (time point 0.5 h), this molecule displayed a Testes concentration of 256 ng/g. In series [1] (time point 2 h), this molecule registered a Brain concentration of 113 ng/g, a Kp brain/plasma of 0.07, a Kp testes/plasma of 0.29 and a Plasma concentration of 1680 ng/mL. Moreover, in series [1] (time point 2 h), the Testes concentration is 482 ng/g. In series [1] (time point 7 h), the Brain concentration came to 45.5 ng/g, the Kp brain/plasma turned out to be 0.07, the Kp testes/plasma is 0.38 and the Plasma concentration came to 693 ng/mL. Further, in series [1] (time point 7 h), the Testes concentration came to 248 ng/g. Moreover, the “brain penetration as indicated by Kp (Cbrain/Cplasma)” value in series [1] (result in words) was “do not significantly penetrate the brain or minimally penetrate the brain”. For the same molecule, in the series with Caco-2 cells, the “Caco-2: Efflux Ratio” value was found to be 4.4 and the “Caco-2: Papp A-B” value was 6.74 10^−6 cm/s.

In series [1] (time point 2 h), `Cc1ccc(-c2noc(C(C)NS(C)(=O)=O)n2)cc1NC(=O)c1cnc2ccccn12` (single isomer, unassigned) [Compound I-237] had a Brain concentration of 0 ng/g, a Kp testes/plasma of 0.18, a Plasma concentration of 1090 ng/mL and a Testes concentration of 192 ng/g. Also, in the series on Caco-2 cells, the “Caco-2: Efflux Ratio” value worked out at 57.6 and the “Caco-2: Papp A-B” value was 0.50 10^−6 cm/s.

On to `Cc1ccc(-c2noc(C3(C)CC(F)(F)CN3)n2)cc1NC(=O)c1cnc2ccccn12` (racemic) [Compound I-328], for which, in series [1] (time point 2 h), the Brain concentration turned out to be 25.4 ng/g, the Kp brain/plasma was determined as 0.42, the Kp testes/plasma is listed as 0.93 and the Plasma concentration worked out at 60.3 ng/mL. Further, in series [1] (time point 2 h), the Testes concentration came out at 56.2 ng/g. For the same molecule, in the series on Caco-2 cells, the “Caco-2: Efflux Ratio” value is recorded as 1.02 and the “Caco-2: Papp A-B” value is 18.2 10^−6 cm/s.

In series [1] (time point 2 h), `COC(=O)N1CC(c2nc(-c3ccc(C(F)F)c(NC(=O)c4cnc5ccccn45)c3)no2)C1` [Compound I-225] yielded a Brain concentration of 506 ng/g, a Kp brain/plasma of 0.15, a Kp testes/plasma of 0.33 and a Plasma concentration of 3420 ng/mL. Moreover, the Testes concentration in series [1] (time point 2 h) came to 1140 ng/g. For the same molecule, in the series on Caco-2 cells, the “Caco-2: Efflux Ratio” value turned out to be 1.37 and the “Caco-2: Papp A-B” value is reported as 9.62 10^−6 cm/s.

With `Cc1ccc(-c2noc(C3CC(OCCF)C3)n2)cc1NC(=O)c1cnc2ccccn12` (centres unmarked) [Compound I-369], in series [1] (time point 2 h), the Brain concentration was 1940 ng/g, the Kp brain/plasma stood at 1.19, the Kp testes/plasma is recorded as 1.27 and the Plasma concentration worked out at 1630 ng/mL. The Testes concentration in series [1] (time point 2 h) turned out to be 2060 ng/g. In addition, in the series on Caco-2 cells, the “Caco-2: Efflux Ratio” value is 0.77 and the “Caco-2: Papp A-B” value is 20.6 10^−6 cm/s.

Values taken from patent US20240254119A1 (THIRD HARMONIC BIO, INC., priority 2022, published 2024).
